Test in all cases: Antimicrobial activity, minimum inhibitory concentration (MIC)
Assay type in all cases: cell-based

One assay has as its system Candida albicans 90028. As for the experimental part:
(§1) The antimicrobial activity of CSA-148 was determined in comparison to CSA-44, a CSA compound known to have very high antimicrobial activity compared to other CSAs. The microbes used in the comparative test was were Candida albicans 90028, methicillin resistant Staphylococcus aureus (MRSA) BAA-41, and Pseudomonas aeruginosa (PA01 47085).
The measured MICs for C. albicans 90028 were based on 100% inhibition of growth (i.e. no cloudiness). Judging by 50% inhibition, which is more difficult but is typical for fungal MICs, the MIC for CSA-44 relative to C. albicans can be extrapolated to 4 μg/ml, and the MIC for CSA-148 relative to C. albicans can be extrapolated to 2 μg/ml.

The subject of assay [1] is Pseudomonas aeruginosa (PA01 47085). The procedure:
as §1

In assay [2] the test system is methicillin resistant Staphylococcus aureus (MRSA) BAA-41. The procedure:
as §1

≈ marks a conversion by molar mass, not a printed value. Read-outs that look alike come from different tables or passages of the source.

With `CCCCCCCCOC(=O)CC[C@@H](C)[C@H]1CC[C@H]2[C@@H]3[C@H](OC(=O)CCN)C[C@@H]4C[C@H](OC(=O)CCN)CC[C@]4(C)[C@H]3C[C@H](OC(=O)CCN)[C@]12C` [CSA-44], the MIC against Candida albicans 90028 (C. albicans 90028, based on 100% inhibition of growth (no cloudiness)) is 8 µg/mL (≈ 10.9 µM); in the assay on Candida albicans 90028 (C. albicans, judging by 50% inhibition, extrapolated), 4 µg/mL (≈ 5.45 µM); in assay [1], 2 µg/mL (≈ 2.72 µM); in assay [2], 2 µg/mL (≈ 2.72 µM).

In the case of `CC(C)=CCC/C(C)=C/COC(=O)CC[C@@H](C)[C@H]1CC[C@H]2[C@@H]3[C@H](OC(=O)CCN)C[C@@H]4C[C@H](OC(=O)CCN)CC[C@]4(C)[C@H]3C[C@H](OC(=O)CCN)[C@]12C` [CSA-148], the minimum inhibitory concentration (MIC) in the assay on Candida albicans 90028 (Candida albicans, 90028, C. albicans 90028, based on 100% inhibition of growth (no cloudiness), read-out: MIC) is 4 µg/mL (≈ 5.28 µM); in the assay with Candida albicans 90028 (Candida albicans, 90028, C. albicans, judging by 50% inhibition, extrapolated, read-out: MIC), 2 µg/mL (≈ 2.64 µM); in assay [1] (Pseudomonas aeruginosa, read-out: MIC), 2 µg/mL (≈ 2.64 µM); in assay [2] (Staphylococcus aureus, read-out: MIC), 2 µg/mL (≈ 2.64 µM).

The values above are taken from patent US12215126B2, “Cationic steroidal antimicrobial compounds with endogenous groups” (Brigham Young University, priority 2020, dated 2025).
